Laboratory results reported in patent US9884048B2, “ERK inhibitors” (Merck Sharp & Dohme Corp., priority 2014, dated 2018).

What follows are compounds tested against phosphorylated active hERK2 enzyme (Homo sapiens (Human), UniProt P28482). Settings: read-out: ERK2 IC50; IMAP-FP assay; 0.5 nM hERK2, 30 μM ATP; 10 point titration, 3 μM starting concentration.
Chain of phosphorylated active hERK2 enzyme (P28482 whole entry): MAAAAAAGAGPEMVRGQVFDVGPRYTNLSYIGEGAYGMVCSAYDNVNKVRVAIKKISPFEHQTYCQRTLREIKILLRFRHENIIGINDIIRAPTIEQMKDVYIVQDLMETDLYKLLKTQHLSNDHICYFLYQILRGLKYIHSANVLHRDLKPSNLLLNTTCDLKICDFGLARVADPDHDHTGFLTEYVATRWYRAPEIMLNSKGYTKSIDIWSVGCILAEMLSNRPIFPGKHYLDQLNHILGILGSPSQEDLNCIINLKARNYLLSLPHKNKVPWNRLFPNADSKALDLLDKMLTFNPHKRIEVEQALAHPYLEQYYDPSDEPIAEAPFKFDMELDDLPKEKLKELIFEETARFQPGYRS

Structure (SMILES)	IC50 [nM]
Cc1cc(-n2ncc3cc(NC(=O)NCCOc4ccccc4F)ncc32)ccn1 [Example 87, 1-[2-(2-fluorophenoxy)ethyl]-3-[1-(2-methylpyridin-4-yl)-1H-pyrazolo[3,4-c]pyridin-5-yl)urea]	6.38
Cc1cc(-n2ncc3cc(NC(=O)NCCC(F)(F)F)ncc32)ccn1 [Example 88, 1-[1-(2-methylpyridin-4-yl)-1H-pyrazolo[3,4-c]pyridin-5-yl]-3-(3,3,3-trifluoropropyl)urea]	46.3
Cc1cc(-n2ncc3cc(NC(=O)N[C@H](CCO)c4ccccc4)ncc32)ccn1 [Example 89, 1-[(1R)-3-hydroxy-1-phenylpropyl]-3-[1-(2-methylpyridin-4-yl)-1H-pyrazolo[3,4-c]pyridin-5-yl)urea]	0.821
COC[C@@H](NC(=O)Nc1cc2cnn(-c3ccnc(C)c3)c2cn1)c1ccccc1 [Example 90, 1-[(1S)-2-methoxy-1-phenylethyl]-3-[1-(2-methylpyridin-4-yl)-1H-pyrazolo[3,4-c]pyridin-5-yl)urea]	0.68
Cc1cc(-n2ncc3cc(NC(=O)NCc4ccc(N5CCCC5=O)cc4)ncc32)ccn1 [Example 91, 1-[1-(2-methylpyridin-4-yl)-1H-pyrazolo[3,4-c]pyridin-5-yl]-3-[4-(2-oxopyrrolidin-1-yl)benzyl]urea]	332
CNC(=O)c1ccc(CNC(=O)Nc2cc3cnn(-c4ccnc(C)c4)c3cn2)cc1 [Example 92, N-methyl-4-[({[1-(2-methylpyridin-4-yl)-1H-pyrazolo[3,4-c]pyridin-5-yl]carbamoyl}amino)methyl] benzamide]	801
Cc1cc(-n2ncc3cc(NC(=O)NCc4cccc(S(C)(=O)=O)c4)ncc32)ccn1 [Example 93, 1-[1-(2-methylpyridin-4-yl)-1H-pyrazolo[3,4-c]pyridin-5-yl]-3-[3-(methylsulfonyl)-benzyl]urea]	1.44
Cc1cc(-n2ncc3cc(NC(=O)NCc4cccc(-c5ncco5)c4)ncc32)ccn1 [Example 94, 1-[1-(2-methylpyridin-4-yl)-1H-pyrazolo[3,4-c]pyridin-5-yl]-3-[3-(1,3-oxazol-2-yl)benzyl]urea]	13.3
Cc1cc(-n2ncc3cc(NC(=O)NCCOCc4ccccc4)ncc32)ccn1 [Example 95, 1-[2-(benzyloxy)ethyl]-3-[1-(2-methylpyridin-4-yl)-1H-pyrazolo[3,4-c]pyridin-5-yl]urea]	5.4
Cc1cc(-n2ncc3cc(NC(=O)NCCNCc4ccccc4)ncc32)ccn1 [Example 96, 1-[2-(benzylamino)ethyl]-3-[1-(2-methylpyridin-4-yl)-1H-pyrazolo[3,4-c]pyridin-5-yl]urea]	19.1
CNC(=O)c1cccc(CNC(=O)Nc2cc3cnn(-c4ccnc(C)c4)c3cn2)c1 [Example 97, N-methyl-3-[({[1-(2-methylpyridin-4-yl)-1H-pyrazolo[3,4-c]pyridin-5-yl]carbamoyl}amino)methyl] benzamide]	3.39
Cc1cc(-n2ncc3cc(NC(=O)NCc4cccc(-c5ccon5)c4)ncc32)ccn1 [Example 98, 1-(3-isoxazol-3-ylbenzyl)-3-[1-(2-methylpyridin-4-yl)-1H-pyrazolo[3,4-c]pyridin-5-yl]urea]	1.68
Cc1cc(-n2ncc3cc(NC(=O)NCC4Cc5ccccc5N(C)C4)ncc32)ccn1 (centres unmarked) [Example 99, 1-[1-(2-methylpyridin-4-yl)-1H-pyrazolo[3,4-c]pyridin-5-yl]-3-[(1-methyl-1,2,3,4-tetrahydroquinolin-3-yl)methyl]urea]	2.31
Cc1cc(-n2ncc3cc(NC(=O)NCC4(N(C)C)CCCCC4)ncc32)ccn1 [Example 100, 1-{[1-(dimethylamino)cyclohexyl]methyl}-3-[1-(2-methylpyridin-4-yl)-1H-pyrazolo[3,4-c]pyridin-5-yl)urea]	1210
Cc1cc(-n2ncc3cc(NC(=O)N[C@H]4[C@H](c5ccccc5C)CN(C)[C@H]4C)ncc32)ccn1 [Example 101, 1-[(2S,3S,4R)-1,2-dimethyl-4-(2-methylphenyl)-pyrrolidin-3-yl]-3-[1-(2-methylpyridin-4-yl)-1H-pyrazolo[3,4-c]pyridin-5-yl)urea]	0.5
Cc1cc(-n2ncc3cc(NC(=O)N[C@H]4[C@H](c5ccccc5C)CN(C)C4(C)C)ncc32)ccn1 [Example 102, 1-[1-(2-methylpyridin-4-yl)-1H-pyrazolo[3,4-c]pyridin-5-yl]-3-[(3S,4R)-1,2,2-trimethyl-4-(2-methylphenyl)pyrrolidin-3-yl)urea]	235
Cc1cc(-n2ncc3cc(NC(=O)N[C@@H]4CN(C)C(C)(C)[C@H]4c4ccccc4C)ncc32)ccn1 [Example 103, 1-[1-(2-methylpyridin-4-yl)-1H-pyrazolo[3,4-c]pyridin-5-yl]-3-[(3S,4S)-1,5,5-trimethyl-4-(2-methylphenyl)pyrrolidin-3-yl)urea]	1.14
Cc1cc(-n2ncc3cc(NC(=O)N[C@@H]4[C@@H](C)N(C)C[C@H]4c4ccccc4C)ncc32)ccn1 [Example 104, 1-[(2R,3S,4R)-1,2-dimethyl-4-(2-methyl-phenyl)pyrrolidin-3-yl]-3-[1-(2-methylpyridin-4-yl)-1H-pyrazolo[3,4-c]pyridin-5-yl]urea]	35.5

Structure (SMILES)	IC50 [nM]
Cc1cc(-n2ncc3cc(NC(=O)N[C@@H]4CN(C)[C@@H](C)[C@H]4c4ccccc4C)ncc32)ccn1 [Example 105, 1-[(3S,4S,5S)-1,5-dimethyl-4-(2-methylphenyl)-pyrrolidin-3-yl]-3-[1-(2-methylpyridin-4-yl)-1H-pyrazolo[3,4-c]pyridin-5-yl)urea]	2.15
Cc1cc(-n2ncc3cc(NC(=O)N[C@@H]4CN(C)[C@H](C)[C@H]4c4ccccc4C)ncc32)ccn1 [Example 106, 1-[(3S,4S,5R)-1,5-dimethyl-4-(2-methylphenyl)-pyrrolidin-3-yl]-3-[1-(2-methylpyridin-4-yl)-1H-pyrazolo[3,4-c]pyridin-5-yl)urea]	1.52
Cc1cc(-n2ncc3cc(NC(=O)N[C@H]4[C@H](c5ccccc5)CN(C)C45COC5)ncc32)ccn1 [Example 107, 1-[(7R,8S)-5-methyl-7-phenyl-2-oxa-5-azaspiro[3.4]oct-8-yl]-3-[1-(2-methylpyridin-4-yl)-1H-pyrazolo[3,4-c]pyridin-5-yl)urea]	9.04
Cc1cc(-n2ncc3cc(NC(=O)NCc4cn(C)cn4)ncc32)ccn1 [Example 108, 1-[(1-methyl-1H-imidazol-4-yl)methyl]-3-[1-(2-methylpyridin-4-yl)-1H-pyrazolo[3,4-c]pyridin-5-yl)urea]	284
Cc1cc(-n2ncc3cc(NC(=O)NCCN4CCOCC4)ncc32)ccn1 [Example 109, 1-[1-(2-methylpyridin-4-yl)-1H-pyrazolo[3,4-c]pyridin-5-yl]-3-(2-morpholin-4-ylethyl)urea]	627
Cc1cc(-n2ncc3cc(NC(=O)NCCF)ncc32)ccn1 [Example 110, 1-(2-fluoroethyl)-3-[1-(2-methylpyridin-4-yl)-1H-pyrazolo[3,4-c]pyridin-5-yl]urea]	106
COCCNC(=O)Nc1cc2cnn(-c3ccnc(C)c3)c2cn1 [Example 111, 1-(2-methoxyethyl)-3-[1-(2-methylpyridin-4-yl)-1H-pyrazolo[3,4-c]pyridin-5-yl)urea]	81.8
Cc1cc(-n2ncc3cc(NC(=O)N[C@@H]4CN(C)C[C@H]4c4cccnc4)ncc32)ccn1 [Example 112, 1-[1-(2-methylpyridin-4-yl)-1H-pyrazolo[3,4-c]pyridin-5-yl]-3-[(3S,4R)-1-methyl-4-pyridin-3-ylpyrrolidin-3-yl)urea]	48.7
Cc1cc(-n2ncc3cc(NC(=O)N[C@H]4CN(C)C[C@@H]4c4sccc4C)ncc32)ccn1 [Example 113, 1-[(3R,4S)-1-methyl-4-(3-methylthiophen-2-yl)pyrrolidin-3-yl]-3-[1-(2-methylpyridin-4-yl)-1H-pyrazolo[3,4-c]pyridin-5-yl)urea]	7.11
Cc1cc(-n2ncc3cc(NC(=O)NCc4c(-c5ccccc5)noc4C)ncc32)ccn1 [Example 114, 1-[(5-methyl-3-phenyl-isoxazol-4-yl)methyl]-3-[1-(2-methylpyridin-4-yl)-1H-pyrazolo[3,4-c]pyridin-5-yl)urea]	2.14
Cc1cc(-n2ncc3cc(NC(=O)N[C@H]4CN(C)C[C@@H]4CCc4ccccc4)ncc32)ccn1 [Example 115, 1-[(3R,4S)-1-methyl-4-(2-phenylethyl)pyrrolidin-3-yl]-3-[1-(2-methylpyridin-4-yl)-1H-pyrazolo[3,4-c]-pyridin-5-yl)urea]	0.689
Cc1cc(-n2ncc3cc(NC(=O)NCc4c(C)nn(C)c4C)ncc32)ccn1 [Example 116, 1-[1-(2-methylpyridin-4-yl)-1H-pyrazolo[3,4-c]pyridin-5-yl]-3-[(1,3,5-trimethyl-1H-pyrazol-4-yl)methyl]urea]	27.6
Cc1cc(-n2ncc3cc(NC(=O)NCCc4c(C)noc4C)ncc32)ccn1 [Example 117, 1-[2-(3,5-dimethylisoxazol-4-yl)ethyl]-3-[1-(2-methylpyridin-4-yl)-1H-pyrazolo[3,4-c]pyridin-5-yl)urea]	16.4
Cc1cc(-n2ncc3cc(NC(=O)NCc4nonc4C)ncc32)ccn1 [Example 118, 1-[(4-methyl-1,2,5-oxadiazol-3-yl)methyl]-3-[1-(2-methylpyridin-4-yl)-1H-pyrazolo[3,4-c]pyridin-5-yl]urea]	5.38
Cc1cc(-n2ncc3cc(NC(=O)NCc4cc(C)nn4C)ncc32)ccn1 [Example 119, 1-[(1,3-dimethyl-1H-pyrazol-5-yl)methyl]-3-[1-(2-methylpyridin-4-yl)-1H-pyrazolo[3,4-c]pyridin-5-yl)urea]	96.6
Cc1cc(-n2ncc3cc(NC(=O)NCC(C)O)ncc32)ccn1 (centres unmarked) [Example 120, 1-(2-hydroxypropyl)-3-[1-(2-methylpyridin-4-yl)-1H-pyrazolo[3,4-c]pyridin-5-yl)urea]	108
Cc1cc(-n2ncc3cc(NC(=O)NC4(C#N)CC4)ncc32)ccn1 [Example 121, 1-(1-cyanocyclopropyl)-3-[1-(2-methylpyridin-4-yl)-1H-pyrazolo[3,4-c]pyridin-5-yl]urea]	1810
